Experimental data published in patent US20260347373A1, “HETEROCYCLIC COMPOUNDS, COMPOSITIONS THEREOF, AND METHODS OF TREATMENT THEREWITH” (BeOne Medicines I GmbH, priority 2023, published 2026).

Tests used:
KRAS G12D = KRAS G12D (Homo sapiens, UniProt P01116, G12D); experiment: KRAS G12D Probe Displacement Assay (TR-FRET, GDP-loaded); format: binding; conditions: KRAS G12D, read-out: KRAS^G12D Probe Displacement Assay IC50
Excerpt: (§1) The synthetic routes of probe 1 and 2, which have been disclosed in PCT/CN2022/070676, are hereby incorporated herein.

WT KRAS = WT KRAS (Homo sapiens, UniProt P01116); experiment: KRAS WT Probe Displacement Assay (TR-FRET, GDP-loaded); format: binding; conditions: KRAS WT, read-out: KRAS^WT Probe Displacement Assay IC50
Excerpt: as §1

Chain of KRAS G12D (P01116 1-188 isoform P01116-2 G12D): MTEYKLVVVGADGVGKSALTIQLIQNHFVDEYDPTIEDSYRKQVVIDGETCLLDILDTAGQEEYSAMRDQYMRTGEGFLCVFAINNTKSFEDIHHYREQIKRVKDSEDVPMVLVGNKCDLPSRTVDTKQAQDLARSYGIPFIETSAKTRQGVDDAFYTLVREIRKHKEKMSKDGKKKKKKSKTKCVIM
Chain of WT KRAS (P01116 1-188 isoform P01116-2): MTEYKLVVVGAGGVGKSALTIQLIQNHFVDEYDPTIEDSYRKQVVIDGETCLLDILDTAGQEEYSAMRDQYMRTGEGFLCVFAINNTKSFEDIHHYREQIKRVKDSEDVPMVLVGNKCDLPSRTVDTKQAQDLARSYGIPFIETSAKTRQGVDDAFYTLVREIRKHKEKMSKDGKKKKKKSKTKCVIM

| Structure (SMILES) | IC50 (KRAS G12D) | IC50 (WT KRAS) |
| --- | --- | --- |
| Cc1cc(N)cc(-c2nc3c4c(nc(OCC5(CN6C[C@@H]7[C@@H](F)[C@@H]7C6)CC5)nc4c2F)N2C[C@H]4CC[C@H](N4)[C@H]2CCO3)c1C(F)(F)F [Example 169, 3-((6aR,7S,10R)-1-fluoro-13-((1-(((1R,5S,6S)-6-fluoro-3-azabicyclo[3.1.0]hexan-3-yl)methyl)cyclopropyl)methoxy)-5,6,6a,7,8,9,10,11-octahydro-4-oxa-3,11a,12,14,15-pentaaza-7,10-methanocyclohepta[4,5]cycloocta[1,2,3-de]naphthalen-2-yl)-5-methyl-4-(trifluoromethyl)aniline] | < 0.3 nM | 3 to 1000 nM |
| Cc1cc(N)cc(-c2nc3c4c(nc(OCC5(CN6C[C@@H]7[C@@H](CF)[C@@H]7C6)CC5)nc4c2F)N2C[C@H]4CC[C@H](N4)[C@H]2CCO3)c1C(F)(F)F [Example 170, 3-((6aR,7S,10R)-1-fluoro-13-((1-(((1R,5S,6R)-6-(fluoromethyl)-3-azabicyclo[3.1.0]hexan-3-yl)methyl)cyclopropyl)methoxy)-5,6,6a,7,8,9,10,11-octahydro-4-oxa-3,11a,12,14,15-pentaaza-7,10-methanocyclohepta[4,5]cycloocta[1,2,3-de]naphthalen-2-yl)-5-methyl-4-(trifluoromethyl)aniline] | < 0.3 nM | 3 to 1000 nM |
| Cc1cc(N)cc(-c2nc3c4c(nc(OCC5(CN6C[C@@H]7C[C@@H]7[C@H]6C)CC5)nc4c2F)N2C[C@H]4CC[C@H](N4)[C@H]2CCO3)c1C(F)(F)F [Example 171, 3-((6aR,7S,10R)-1-fluoro-13-((1-(((1S,2R,5R)-2-methyl-3-azabicyclo[3.1.0]hexan-3-yl)methyl)cyclopropyl)methoxy)-5,6,6a,7,8,9,10,11-octahydro-4-oxa-3,11a,12,14,15-pentaaza-7,10-methanocyclohepta[4,5]cycloocta[1,2,3-de]naphthalen-2-yl)-5-methyl-4-(trifluoromethyl)aniline] | < 0.3 nM | 3 to 1000 nM |
| Cc1cc(N)cc(-c2nc3c4c(nc(OCC5(CN6C[C@H]7C[C@H]7[C@H]6C)CC5)nc4c2F)N2C[C@H]4CC[C@H](N4)[C@H]2CCO3)c1C(F)(F)F [Example 172, 3-((6aR,7S,10R)-1-fluoro-13-((1-(((1R,2R,5S)-2-methyl-3-azabicyclo[3.1.0]hexan-3-yl)methyl)cyclopropyl)methoxy)-5,6,6a,7,8,9,10,11-octahydro-4-oxa-3,11a,12,14,15-pentaaza-7,10-methanocyclohepta[4,5]cycloocta[1,2,3-de]naphthalen-2-yl)-5-methyl-4-(trifluoromethyl)aniline] | < 0.3 nM | 3 to 1000 nM |
| Cc1cc(N)cc(-c2nc3c4c(nc(OCC5(CN6CCC7(CC6)CC(F)(F)C7)CC5)nc4c2F)N2C[C@H]4CC[C@H](N4)[C@H]2CCO3)c1C(F)(F)F [Example 173, 3-((6aR,7S,10R)-13-((1-((2,2-difluoro-7-azaspiro[3.5]nonan-7-yl)methyl)cyclopropyl)methoxy)-1-fluoro-5,6,6a,7,8,9,10,11-octahydro-4-oxa-3,11a,12,14,15-pentaaza[7,10]methanocyclohepta[4,5]cycloocta[1,2,3-de]naphthalen-2-yl)-5-methyl-4-(trifluoromethyl)aniline] | < 0.3 nM | 3 to 1000 nM |
| Cc1cc(N)cc(-c2nc3c4c(nc(OCC5(CN6CC7CC6CC7(F)F)CC5)nc4c2F)N2C[C@H]4CC[C@H](N4)[C@H]2CCO3)c1C(F)(F)F [Example 174, 3-((6aR,7S,10R)-13-((1-((5,5-difluoro-2-azabicyclo[2.2.1]heptan-2-yl)methyl)cyclopropyl)methoxy)-1-fluoro-5,6,6a,7,8,9,10,11-octahydro-4-oxa-3,11a,12,14,15-pentaaza-7,10-methanocyclohepta[4,5]cycloocta[1,2,3-de]naphthalen-2-yl)-5-methyl-4-(trifluoromethyl)aniline] | < 0.3 nM | 3 to 1000 nM |
| Cc1cc(N)cc(-c2nc3c4c(nc(OCC5(CN6[C@@H]7CC[C@H]6CC(F)(F)C7)CC5)nc4c2F)N2C[C@H]4CC[C@H](N4)[C@H]2CCO3)c1C(F)(F)F [Example 175, 3-((6aR,7S,10R)-13-((1-(((1R,5S)-3,3-difluoro-8-azabicyclo[3.2.1]octan-8-yl)methyl)cyclopropyl)methoxy)-1-fluoro-5,6,6a,7,8,9,10,11-octahydro-4-oxa-3,11a,12,14,15-pentaaza-7,10-methanocyclohepta[4,5]cycloocta[1,2,3-de]naphthalen-2-yl)-5-methyl-4-(trifluoromethyl)aniline] | < 0.3 nM | 3 to 1000 nM |
| Cc1cc(N)cc(-c2nc3c4c(nc(OCC5(CN6CC7(C6)CC(F)(F)C7)CC5)nc4c2F)N2C[C@H]4CC[C@H](N4)[C@H]2CCO3)c1C(F)(F)F [Example 176, 3-((6aR,7S,10R)-13-((1-((6,6-difluoro-2-azaspiro[3.3]heptan-2-yl)methyl)cyclopropyl)methoxy)-1-fluoro-5,6,6a,7,8,9,10,11-octahydro-4-oxa-3,11a,12,14,15-pentaaza[7,10]methanocyclohepta[4,5]cycloocta[1,2,3-de]naphthalen-2-yl)-5-methyl-4-(trifluoromethyl)aniline] | < 0.3 nM | 3 to 1000 nM |
| Cc1cc(N)cc(-c2nc3c4c(nc(OCC5(CN6CCC(OC(F)(F)F)CC6)CC5)nc4c2F)N2C[C@H]4CC[C@H](N4)[C@H]2CCO3)c1C(F)(F)F [Example 177, 3-((6aR,7S,10R)-1-fluoro-13-((1-((4-(trifluoromethoxy)piperidin-1-yl)methyl)cyclopropyl)methoxy)-5,6,6a,7,8,9,10,11-octahydro-4-oxa-3,11a,12,14,15-pentaaza-7,10-methanocyclohepta[4,5]cycloocta[1,2,3-de]naphthalen-2-yl)-5-methyl-4-(trifluoromethyl)aniline] | < 0.3 nM | 0.3 to 3 nM |
| Cc1cc(N)cc(-c2nc3c4c(nc(OCC5(CN6CC=C(F)CC6)CC5)nc4c2F)N2C[C@H]4CC[C@H](N4)[C@H]2CCO3)c1C(F)(F)F [Example 178, 3-((6aR,7S,10R)-1-fluoro-13-((1-((4-fluoro-3,6-dihydropyridin-1(2H)-yl)methyl)cyclopropyl)methoxy)-5,6,6a,7,8,9,10,11-octahydro-4-oxa-3,11a,12,14,15-pentaaza-7,10-methanocyclohepta[4,5]cycloocta[1,2,3-de]naphthalen-2-yl)-5-methyl-4-(trifluoromethyl)aniline] | < 0.3 nM | 3 to 1000 nM |
| Cc1cc(N)cc(-c2nc3c4c(nc(OCC5(CN6CCC=C(F)C6)CC5)nc4c2F)N2C[C@H]4CC[C@H](N4)[C@H]2CCO3)c1C(F)(F)F [Example 179, 3-((6aR,7S,10R)-1-fluoro-13-((1-((5-fluoro-3,6-dihydropyridin-1(2H)-yl)methyl)cyclopropyl)methoxy)-5,6,6a,7,8,9,10,11-octahydro-4-oxa-3,11a,12,14,15-pentaaza-7,10-methanocyclohepta[4,5]cycloocta[1,2,3-de]naphthalen-2-yl)-5-methyl-4-(trifluoromethyl)aniline] | < 0.3 nM | 3 to 1000 nM |
| COC[C@@H]1[C@@H]2C[C@@H]2CN1CC1(COc2nc3c4c(nc(-c5cc(N)cc(C)c5C(F)(F)F)c(F)c4n2)OCC[C@@H]2[C@@H]4CC[C@H](CN32)N4)CC1 [Example 180, 3-((6aR,7S,10R)-1-fluoro-13-((1-(((1R,2S,5S)-2-(methoxymethyl)-3-azabicyclo[3.1.0]hexan-3-yl)methyl)cyclopropyl)methoxy)-5,6,6a,7,8,9,10,11-octahydro-4-oxa-3,11a,12,14,15-pentaaza-7,10-methanocyclohepta[4,5]cycloocta[1,2,3-de]naphthalen-2-yl)-5-methyl-4-(trifluoromethyl)aniline] | 0.3 to 3 nM | 3 to 1000 nM |
| COC[C@H]1[C@@H]2C[C@@H]2CN1CC1(COc2nc3c4c(nc(-c5cc(N)cc(C)c5C(F)(F)F)c(F)c4n2)OCC[C@@H]2[C@@H]4CC[C@H](CN32)N4)CC1 [Example 181, 3-((6aR,7S,10R)-1-fluoro-13-((1-(((1R,2R,5S)-2-(methoxymethyl)-3-azabicyclo[3.1.0]hexan-3-yl)methyl)cyclopropyl)methoxy)-5,6,6a,7,8,9,10,11-octahydro-4-oxa-3,11a,12,14,15-pentaaza-7,10-methanocyclohepta[4,5]cycloocta[1,2,3-de]naphthalen-2-yl)-5-methyl-4-(trifluoromethyl)aniline] | < 0.3 nM | 3 to 1000 nM |
| COC[C@@H]1[C@H]2C[C@H]2CN1CC1(COc2nc3c4c(nc(-c5cc(N)cc(C)c5C(F)(F)F)c(F)c4n2)OCC[C@@H]2[C@@H]4CC[C@H](CN32)N4)CC1 [Example 182, 3-((6aR,7S,10R)-1-fluoro-13-((1-(((1S,2S,5R)-2-(methoxymethyl)-3-azabicyclo[3.1.0]hexan-3-yl)methyl)cyclopropyl)methoxy)-5,6,6a,7,8,9,10,11-octahydro-4-oxa-3,11a,12,14,15-pentaaza-7,10-methanocyclohepta[4,5]cycloocta[1,2,3-de]naphthalen-2-yl)-5-methyl-4-(trifluoromethyl)aniline] | < 0.3 nM | 3 to 1000 nM |
| COC[C@H]1[C@H]2C[C@H]2CN1CC1(COc2nc3c4c(nc(-c5cc(N)cc(C)c5C(F)(F)F)c(F)c4n2)OCC[C@@H]2[C@@H]4CC[C@H](CN32)N4)CC1 [Example 183, 3-((6aR,7S,10R)-1-fluoro-13-((1-(((1S,2R,5R)-2-(methoxymethyl)-3-azabicyclo[3.1.0]hexan-3-yl)methyl)cyclopropyl)methoxy)-5,6,6a,7,8,9,10,11-octahydro-4-oxa-3,11a,12,14,15-pentaaza-7,10-methanocyclohepta[4,5]cycloocta[1,2,3-de]naphthalen-2-yl)-5-methyl-4-(trifluoromethyl)aniline] | < 0.3 nM | 3 to 1000 nM |
